What was measured:
Assay type in all cases: functional, Hepatocyte
[1] = species on record: Rattus norvegicus; assay: Tested for release of glutamic pyruvic transaminase (GPT) from CCl4 induced toxicity in primary cultures of rat hepatocytes at 0.01 uM concentration
[2] = species on record: Rattus norvegicus; assay: Tested for release of glutamic pyruvic transaminase (GPT) from CCl4 induced toxicity in primary cultures of rat hepatocytes at 0.1 uM concentration
[3] = species on record: Rattus norvegicus; assay: Tested for release of glutamic pyruvic transaminase (GPT) from CCl4 induced toxicity in primary cultures of rat hepatocytes at 1 uM concentration
[4] = species on record: Rattus norvegicus; assay: Tested for release of glutamic pyruvic transaminase (GPT) from CCl4 induced toxicity in primary cultures of rat hepatocytes at 10 uM concentration
[5] = species on record: Rattus norvegicus; assay: Tested for release of glutamic pyruvic transaminase (GPT) from CCl4 induced toxicity in primary cultures of rat hepatocytes at 50 uM concentration

Compound	Relative protection [1] [%]	Relative protection [2] [%]	Relative protection [3] [%]	Relative protection [4] [%]	Relative protection [5] [%]
O=Cc1ccc(CO)n1CCCC(=O)O	12.4	64.4	39.7	3.2	–
COC(=O)CCCn1c(C=O)ccc1CO	5.1	30.8	40.8	20.8	–
COCc1ccc(C=O)n1CCCC(=O)OC	8.9	38.5	13.2	15.9	–
COCc1ccc(C=O)n1CCCC(=O)O	36	65.8	29.2	14.2	–
COc1cc([C@H]2Oc3cc([C@H]4Oc5cc(O)cc(O)c5C(=O)[C@@H]4O)ccc3O[C@@H]2CO)ccc1O [SILIBININ]	–	–	14.6	28.8	45.5

— ChEMBL document CHEMBL1136365, “Hepatoprotective pyrrole derivatives of Lycium chinense fruits” (2003)
